Assay results reported in US20240166690A1, “MULTI-TARGET CY[…] FOR OPIOID/NEUROPEPTIDE FF RECEPTORS, AND PREPARATION THEREFOR AND APPLICATION THEREOF” (SHANGHAI TIANCI LIFE SCIENCE DEVELOPMENT CO., LTD., priority 2021, published 2024).
Bridge positions count the residues as written; N and C are the ends. Square brackets hold non-standard residues; d marks the D form. Peptide text beside a SMILES is read from it. NMeF = CN[C@@H](Cc1ccccc1)C(=O)O; dOrn = NCCC[C@@H](N)C(=O)O

Key:
[1] = target: T1, Mu-opioid receptor (Homo sapiens, UniProt P35372); experiment: cAMP functional experiment, Mu-opioid receptor (forskolin-induced cAMP accumulation); format: cell-based
T1 construct: expressed in transfected cells; host or cells: HEK293
Description: (§1) The agonistic activity of the cyclopeptide molecule of the present invention against Mu-opioid receptor, Delta-opioid receptor, Kappa-opioid receptor, NPFF1 receptor and NPFF2 receptor was evaluated by detecting the regulation of the cyclopeptide molecule of the present invention on the intracellular accumulation of cyclic adenosine monophosphate (cAMP) induced by Forskolin in HEK293 cells stably expressing these five receptors. The experimental method was: the cells were seeded in 24 well plates with 120000 cells per well, and were cultured for more than 20 hours. At the beginning of the experiment, the culture medium in the culture dish was suck out, and then 500 μL of preheated serum-free medium containing 1 mM of IBMX was added, the mixture was incubated at 37° C. for 10 minutes. Then each 10 μL of the drug to be tested and 10 μM of forskolin (final concentration) were added to each well. The mixture was incubated at 37° C. for 30 minutes. After incubation, all the liquid was suck out from the culture dish, 500 μL of 0.2 N hydrochloric acid was added to each well, the mixture was incubated at room temperature for 30 minutes to promote cell lysis. After lysis was complete, NaOH was added to neutralize the hydrochloric acid solution used for lysis. Then all the liquid was suck out from the culture dish into centrifuge tubes, the liquid was centrifuged at 12000 rpm for 2 minutes. 50 μL was taken to a clean centrifuge tube, 100 μL of 60 μg/μL PKA was added, and 100 μL of TE cAMP buffer was added to the blank control group (B). Another 50 μL of 0.5 μ Ci[^3H]cAMP was added to each of the above centrifuge tubes, the mixture was quickly mixed and incubated at 4° C. for more than 2 hours. After incubation, another 100 μL of activated carbon suspension was added to each tube, the mixture was vortex agitated evenly, placed in an ice bath for 1 minute, centrifuged at 5000 rpm for 4 minutes. 200 μL of supernatant after centrifugation in each tube was suck out to a 24 well plate, with an additional 700 μL of scintillator liquid added per well, then the 24 well plate was sealed with adhesive film, placed for 3 hours, then placed on the scintillation instrument for measurement.
(§2) The inhibitory effect of cAMP was represented by the percentage (% control) of drug inhibition of intracellular cAMP accumulation induced by Forskolin, wherein % control=(cAMP content when treated with Forskolin−cAMP content when Forskolin co-treated with the test drug)/(cAMP content when treated with Forskolin−cAMP content when treated with solvent). The related % control data was represented by mean±S.E.M. The dose-effect relationship of the drug was statistically analyzed using a nonlinear regression model, and the IC50 values of the multi-target cyclopeptide molecule on inhibition of Forskolin induced intracellular cAMP accumulation were calculated using the statistical software GraphPad Prism version 5.0.

[2] = target: T2, Delta-opioid receptor (Homo sapiens, UniProt P41143); experiment: cAMP functional experiment, Delta-opioid receptor (forskolin-induced cAMP accumulation); format: cell-based
T2 construct: expressed in transfected cells; host or cells: HEK293
Description: as §1, §2

[3] = tested on: Kunming male mice; experiment: Open field test (locomotor activity); format: in vivo; details: oral, 1000 μg/kg of compound 1, 100 μg/kg of compound 11; for locomotor distance: within 150 minutes, saline 131.1±33.93 m
Description: Open field test was consisted of an uncapped 50×50×40 cm black organic glass box and a set of motion monitoring system. 21±2 g Kunming male mice were selected for the experiment. The room temperature was controlled between 22±1° C., otherwise, high or low temperatures would affect the movement of the mice. Before the experiment began, the box was wipped with alcohol to remove the odor inside and avoid the odor from affecting the locomotor activity of the next mouse. Before the experiment, the basic locomotor activity of the mouse in 30 minutes was recorded, followed by oral (p.o.) injection of physiological saline, 1000 μg/kg of compound 1, and 100 μg/kg of compound 11. The locomotor activity of mice within 150 minutes was recorded. The locomotor activity of mouse was represented by the total distance traveled, which is the total distance±S.E.M. The difference between the compound group and saline control group was statistically analyzed using one-way ANOVA (Bonferroni test). *P<0.05, **P<0.01, and ***P<0.001 indicated significance of difference between saline and compound.

[4] = target: T3, NPFF1 receptor (Homo sapiens, UniProt Q9GZQ6); experiment: cAMP functional experiment, NPFF1 receptor (forskolin-induced cAMP accumulation); format: cell-based
T3 construct: expressed in transfected cells; host or cells: HEK293
Description: as §1, §2

[5] = Constipation side effect assay (gastrointestinal motility, activated carbon); format: in vivo, mice; details: male, Kunming, mouse, in vivo; oral injection, mice; read-out: ED50 of gastrointestinal inhibition
Description: (§3) 26±2 g Kunming male mice were selected. First, the mice were starved and placed in a box without padding. The mice were not allowed to eat, but could drink water freely. The mice were starved for 16 hours then weighted, and administered orally (p.o.). After 15 minutes of administration, pre-prepared activated carbon suspension (a physiological saline suspension containing 5% activated carbon and 10% arabic gum) was orally infused into the stomach at a volume of 0.1 mL/10 g. After 30 minutes of gavage, the mice were sacrificed through cervical dislocation. The mice were dissected immediately and the entire length of the small intestine was taken from the pylorus of the stomach to the cecum. Then the total length of the small intestine and the length of carbon powder movement were measured.
(§4) The experimental data of gastrointestinal motility was represented by a percentage of gastrointestinal motility, and the specific calculation method was represented by a percentage of the distance the carbon powder moved divided by the total length of the small intestine. The data was represented by the mean±S.E.M. of the percentage of gastrointestinal motility, and the differences between compounds and saline were analyzed using one-way ANOVA (Dunnett test). *P<0.05, **P<0.01, and ***P<0.001indicated significance of the difference between only saline injected and related compounds injected.

[6] = tested on: Kunming male mice; experiment: as above; format: in vivo; details: oral; for side effect of constipation: effective dose range of analgesia
Description: as §3, §4

[7] = target: T4, NPFF2 receptor (Homo sapiens, UniProt Q9Y5X5); experiment: cAMP functional experiment, NPFF2 receptor (forskolin-induced cAMP accumulation); format: cell-based
T4 construct: expressed in transfected cells; host or cells: HEK293
Description: as §1, §2

[8] = tested on: mice; experiment: Naloxone withdrawal experiment (number of jumps); format: in vivo; details: for number of jumps: escalating doses every 8 hours, naloxone 10 mg/kg i.p., 30 minutes, saline 5; for withdrawal symptoms versus saline: oral, low and high doses
Description: The naloxone withdrawal test is a classic experiment for evaluating drug physiological addiction. The experimental method is based on Venetia Zachariou (2003). […] High doses of compound 11 were also administered with doses of 20, 40, 60, 80, 100, 100, and 100 μg/kg, respectively. Two hours after the last administration, mice were intraperitoneally injected with 10 mg/kg of naloxone. Then the mouse was immediately placed in an opaque barrel-shaped structure with an inner diameter of 9 cm and a height of 32 cm, and the number of jumps in mice within 30 minutes was recorded. The experimental results were represented by the number of jumps in mice, which is the number of jumps±S.E.M. The difference between the compound group and saline control group was statistically analyzed using one-way ANOVA (Bonferroni test). *P<0.05, **P<0.01, and ***P<0.001 indicated significance of differences between saline and compound.

T3 sequence (Q9GZQ6 whole entry): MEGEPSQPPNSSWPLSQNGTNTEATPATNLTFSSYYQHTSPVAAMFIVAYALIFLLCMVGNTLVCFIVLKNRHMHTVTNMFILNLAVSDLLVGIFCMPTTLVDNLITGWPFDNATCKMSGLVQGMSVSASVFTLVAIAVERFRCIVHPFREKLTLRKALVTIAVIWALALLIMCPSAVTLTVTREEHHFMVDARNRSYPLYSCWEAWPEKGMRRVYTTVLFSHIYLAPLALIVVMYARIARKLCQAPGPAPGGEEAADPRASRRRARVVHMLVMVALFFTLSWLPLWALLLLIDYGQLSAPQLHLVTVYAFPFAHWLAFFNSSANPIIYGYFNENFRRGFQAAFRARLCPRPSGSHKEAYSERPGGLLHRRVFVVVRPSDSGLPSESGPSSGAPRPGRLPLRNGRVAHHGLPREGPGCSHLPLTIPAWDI
T1 sequence (P35372 whole entry): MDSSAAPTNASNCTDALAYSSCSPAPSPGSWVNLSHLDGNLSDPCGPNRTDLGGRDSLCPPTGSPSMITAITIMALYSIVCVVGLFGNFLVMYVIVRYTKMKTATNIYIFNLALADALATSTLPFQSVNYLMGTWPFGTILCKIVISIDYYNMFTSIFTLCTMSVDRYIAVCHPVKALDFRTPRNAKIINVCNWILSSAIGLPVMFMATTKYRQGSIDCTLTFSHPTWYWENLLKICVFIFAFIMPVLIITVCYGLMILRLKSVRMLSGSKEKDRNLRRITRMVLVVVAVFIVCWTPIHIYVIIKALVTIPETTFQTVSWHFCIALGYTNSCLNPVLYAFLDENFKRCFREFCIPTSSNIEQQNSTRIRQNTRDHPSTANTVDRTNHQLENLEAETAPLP
T4 sequence (Q9Y5X5 whole entry): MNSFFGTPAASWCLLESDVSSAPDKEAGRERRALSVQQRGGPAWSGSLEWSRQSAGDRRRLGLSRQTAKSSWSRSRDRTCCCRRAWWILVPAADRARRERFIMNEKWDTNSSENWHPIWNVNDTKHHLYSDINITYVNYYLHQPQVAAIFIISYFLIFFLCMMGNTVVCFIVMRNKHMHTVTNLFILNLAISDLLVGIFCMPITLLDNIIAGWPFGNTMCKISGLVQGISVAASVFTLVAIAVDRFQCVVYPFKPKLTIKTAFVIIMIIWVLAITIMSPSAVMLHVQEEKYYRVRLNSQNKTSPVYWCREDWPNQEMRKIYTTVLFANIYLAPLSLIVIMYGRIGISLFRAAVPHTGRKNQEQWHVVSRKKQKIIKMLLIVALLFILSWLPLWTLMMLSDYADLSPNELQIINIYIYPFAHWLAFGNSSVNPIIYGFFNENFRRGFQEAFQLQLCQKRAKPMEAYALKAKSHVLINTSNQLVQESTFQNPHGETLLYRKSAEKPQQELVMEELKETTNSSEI
T2 sequence (P41143 whole entry): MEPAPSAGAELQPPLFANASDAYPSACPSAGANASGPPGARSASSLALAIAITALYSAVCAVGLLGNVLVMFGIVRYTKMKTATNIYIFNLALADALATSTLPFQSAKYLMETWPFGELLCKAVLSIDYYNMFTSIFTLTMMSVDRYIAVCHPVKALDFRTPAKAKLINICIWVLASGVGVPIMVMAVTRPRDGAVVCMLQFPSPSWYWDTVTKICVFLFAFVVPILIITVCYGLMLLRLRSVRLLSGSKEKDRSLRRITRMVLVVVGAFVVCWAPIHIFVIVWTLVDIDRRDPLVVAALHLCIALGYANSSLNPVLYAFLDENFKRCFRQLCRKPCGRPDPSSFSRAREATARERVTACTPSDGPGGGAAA

For CN1C(=O)CNC(=O)[C@H](NC(=O)[C@@H](N)Cc2ccc(O)cc2)CCCCNC(=O)C[C@@H](C(=O)N2CCC[C@H]2C(=O)N[C@@H](CCC(N)=O)C(=O)N[C@@H](CCCNC(=N)N)C(=O)N[C@@H](Cc2ccccc2)C(N)=O)NC(=O)[C@@H]1Cc1ccccc1 [Compound 1, Tyr-c[D-Lys-Gly-NMe-Phe-Asp]-Pro-Gln-Arg-Phe-NH2] (H-Y[dK]G[NMeF]DPQRF-NH2; lactam 2-5), the IC50 [1] was 93.5 nM, the IC50 [2] was 549 nM and the “locomotor activity versus saline” value [3] was “no change in the locomotor activity”. It also gave a locomotor distance [3] of 109.4±32.16 m, an IC50 [4] of 104 nM and an ED50 at 45 min [5] of 37.1 mg/kg. For the same molecule, the “ED50 of gastrointestinal inhibition relative to analgesic ED50” value [6] was 27044 times, the “side effect of constipation” value [6] was “no side effect of constipation within the effective dose range of analgesia” and the IC50 [7] was 49.8 nM. The number of jumps ([8]; high-dose oral) was 1, the number of jumps ([8]; low-dose oral) was 1 and the “withdrawal symptoms versus saline” value [8] was “did not show withdrawal symptoms”.
With CN1C(=O)CNC(=O)[C@H](NC(=O)[C@@H](N)Cc2ccc(O)cc2)CCCNC(=O)CC[C@@H](C(=O)N2CCC[C@H]2C(=O)N[C@@H](CCC(N)=O)C(=O)N[C@@H](CCCNC(=N)N)C(=O)N[C@@H](Cc2ccccc2)C(N)=O)NC(=O)[C@@H]1Cc1ccccc1 [Compound 11, Tyr-c^[2,5][D-Orn-Gly-NMe-Phe-Glu]-Pro-Gln-Arg-Phe-NH2] (H-Y[dOrn]G[NMeF]EPQRF-NH2; lactam 2-5) the IC50 [1] was 84 nM, the IC50 [2] was 1560 nM and the “locomotor activity versus saline” value [3] was “no change in the locomotor activity”. It also gave a locomotor distance [3] of 127.9±23.49 m, an IC50 [4] of 42.9 nM and an ED50 at 45 min [5] of 1.24 mg/kg. For the same molecule, the “ED50 of gastrointestinal inhibition relative to analgesic ED50” value [6] was 8850 times, the “side effect of constipation” value [6] was “no side effect of constipation within the effective dose range of analgesia” and the IC50 [7] was 572 nM. For the same molecule, the number of jumps ([8]; high-dose oral) was 4, the number of jumps ([8]; low-dose oral) was 9 and the “withdrawal symptoms versus saline” value [8] was “did not show withdrawal symptoms”.
